“And” between values parts separate entries of the source, which are not always exact repeats. Equal values may be shown once. Read-outs that look alike come from different tables or passages of the source.
Columns and labels:
[1] = tested on: MCF-7 cells transfected with siRNA targeting HRI; assay: cell proliferation assay with siRNA knockdown of HRI (specificity for HRI); assay type: cell-based, human; conditions: MCF-7 cells with or without siRNA targeting HRI; three days; SRB (FIG. 3)
Protocol: MCF-7 cells transfected with (solid bars) or without (hatched bars) siRNA targeting HRI were treated with the indicated concentrations of each compound for three days starting one day after transfection. Cell proliferation was measured by sulforhodamine B assay as previously reported (see e.g., Chen et al, Nat. Chem. Biol. 7 (2011) 610-616).
Stable cell lines utilized in this study were generated according to previous reports (see e.g., Bai et al, ChemBioChem, 14 (2013) 1255-1262). Briefly, cells were seeded at the density of 10^5 in 60-mm dish and transfected one day later using the Lipofectamine 2000 (Invitrogen). For selection of stable cell lines, transfected cells were transferred to 100-mm plates and selected with appropriate antibiotics (see e.g., Chen et al, Nat. Chem. Biol. 7 (2011) 610-616). siRNA knockdown was carried out in 96-well plates by reverse transfection as previously reported (see e.g., Chen et al, Nat. Chem. Biol. 7 (2011) 610-616).
To determine the specificity of the compounds described herein for HRI, knockdown expression of HRI in MCF-7 cells using a pool of siRNA targeting HRI was performed, along with a cell proliferation assay as a biologic response parameter (see e.g., Chen et al, Nat. Chem. Biol. 7 (2011) 610-616; and Chen et al, J. Med. Chem. 56 (2013) 9457-9470). This assay was selected because it compares specificity of the compounds for HRI compared to all other cellular targets that can impinge on cell proliferation. MCF-7 human breast cancer cells transfected with siRNA targeting HRI or vehicle were treated with various concentrations of representative 4-CF3-ΦOcHΦUs (1-VI, 4-VI, and 5-VI) and 4-CF3-ΦOcBΦU (1-IV).

[2] = tested on: eIF2α phosphorylation (ATF-4 5′UTR luciferase reporter); assay: surrogate eIF2α phosphorylation dual-luciferase reporter (DLR) assay; assay type: cell-based; conditions: F/R luciferase ratio normalized to DMSO wells (F/R=1); for fold induction at 1.25 µM: read-out: Fold stimulation of ATF-4 Surrogate eIF2α @ 1.25 μM; for fold induction at 5 µM: read-out: Fold stimulation of ATF-4 Surrogate eIF2α @ 5 μM
Excerpt: The dual luciferase expression vector and other plasmids used in the Examples provided herein have been previously reported (see e.g., Ziegeler et al, J. Biol. Chem. 285 (2010) 15408-15419). The dual luciferase surrogate eIF2α phosphorylation assay, has also been previously reported (see e.g., Chen et al, Nat. Chem. Biol. 7 (2011) 610-616). Briefly, a dual Renilla and Firefly luciferase mammalian reporter vector that transcribes both mRNAs from the same bi-directional enhancer/promoter complex was utilized for generation of surrogate eIF2α phosphorylation assay (see e.g., Ziegeler et al, J. Biol. Chem. 285 (2010) 15408-15419). Both mRNAs contained the same 90 nucleotide plasmid derived 5′UTR. In addition, 5′UTR of the Firefly luciferase open reading frame was fused in-frame to the 267 nucleotide ATF-4 5′UTR (see e.g., Chen et al, Nat. Chem. Biol. 7 (2011) 610-616).
Cells expressing firefly and renilla luciferases were assayed with a dual glow luciferase assay kit, per manufacturer's instruction (Promega Inc., Madison, WI). The data calculations were carried out as the ratio of firefly to renilla luciferase signal (see e.g., Ziegeler et al, J. Biol. Chem. 285 (2010) 15408-15419). Dose-response curves were obtained, and triplicate data points were fitted to the logistical sigmoidal model using nonlinear least-squares regression performed in GraphPad Prism 6.
All newly synthesized N,N′-disubstituted ureas were initially evaluated by testing in the surrogate eIF2α phosphorylation dual-luciferase reporter (DLR) assay (see e.g., Chen et al, Nat. Chem. Biol. 7 (2011) 610-616; and Ziegeler et al, J. Biol. Chem. 285 (2010) 15408-15419). Briefly, this assay takes advantage of the fact that activated HRI phosphorylates eIF2α which inhibits eIF2 guanine nucleotide exchange factor eIF2B, responsible for exchanging the GDP in the eIF2·GDP complex for GTP. The reduction in the recycling of eIF2·GDP into eIF2·GTP interferes with the formation of eIF2·GTP·Met-tRNAi ternary complex. […] These include mRNA coding for activating transcription factor 4 (ATF-4) (see e.g., Aktas et al, Oncotarget, 4 (2013) 1606-1617; Aktas et al, Oncotarget, 6 (2015) 6902-6914; and Aktas et al, Proc. Natl. Acad. Sci. U.S.A. 95 (1998) 8280-8285).
In the present assay, firefly (F) luciferase mRNA was fused to the 5′UTR of ATF-4 mRNA that had multiple uORFs, while renilla (R) luciferase mRNA was fused to a 5′UTR lacking any uORFs. Agents that reduce the amount of the eIF2·GTP·Met-tRNAi ternary complex, such as N,N′-disubstituted ureas that activate HRI, increase F luciferase expression while reducing the R luciferase expression, resulting in an increased F/R luciferase ratio. The ureas of the present application were tested at 10 μM, 5 μM, 2.5 μM, and 1.25 μM concentrations in 96-well assay plates (see e.g., Chen et al, Nat. Chem. Biol. 7 (2011) 610-616; and Bai et al, ChemBioChem, 14 (2013) 1255-1262). The activity scores as the F/R ratios were calculated for every compound-treated well and normalized to F/R ratio of vehicle-treated (DMSO) wells in the same plate, arbitrarily set at 1 (F/R=1). Data obtained in the surrogate dual-luciferase eIF2α phosphorylation (DLR) assay for the series of 1-phenyl-3/4-(4-trifluorometyl) phenoxy-cycloalkyl)ureas (4-CF3-ΦcAlkΦUs) and 1-phenyl-3-(5-(4-(trifluoromethyl) phenoxy)pyrimidin-2-yl)ureas (4-CF3-ΦOPyΦUs) described herein are shown in Tables 1-2.

[3] = tested on: human melanoma CRL-2813 cells; assay: sulforhodamine B (SRB) cell proliferation assay; assay type: cell-based; conditions: 5 days, read-out: IC50 (concentration that inhibits growth of human melanoma CRL-2813 cells by 50%)
Protocol: Cells were seeded in 96-well plates and maintained for 5 days in the presence of 0.5 μM to 20 μM of individual compound, and cell proliferation was measured by the sulforhodamine B (SRB) assay according to previous reports (see e.g., Palakurthi et al, Cancer Res. 60 (2000) 2919-2925): briefly, at the end of a 5-day treatment, cells were fixed in 10% cold trichloroacetic acid. Cell number was estimated by measuring the remaining bound dye of sulforhodamine B after washing. The percentage of growth was calculated by using the equation: 100×[(T-T0)/(C-T0)], where T and C represent the absorbance in treated and control cultures at Day 5, and T0 at time zero, respectively. If T was less than T0, cell death had occurred and was calculated from 100×[(T-T0)/T0].
All 4-CF3-ΦOcAlkΦUs were tested in the sulforhodamine B (SRB) cell proliferation assay to establish the concentrations that inhibit human melanoma CRL-2813 cells growth by 50% (IC50) (see Table 1). This activity reflects a combined effect of membrane permeability and overall anti-proliferative effects that include on target and off-target effects.

Compound	effect of knocking down HRI on the anti-proliferative activity [1]	Fold stimulation of ATF-4 Surrogate eIF2α @ 1.25 μM [2]	fold induction at 1.25 µM [2]	Fold stimulation of ATF-4 Surrogate eIF2α @ 5 μM [2]	fold induction at 5 µM [2]	IC50 ([3]; Homo sapiens, CRL2813, 120 h)	IC50 [3]
N#Cc1cc(NC(=O)N[C@H]2C[C@H](Oc3ccc(C(F)(F)F)cc3)C2)cc(C(F)(F)F)c1 [Compound 1-IV, 1-(3-Cyano-5-(trifluoromethyl)phenyl)-3-(trans-3-(4-(trifluoromethyl)phenoxy)cyclobutyl)urea]	dramatic reduction in the activity	4.4 ± 1.1 fold	4.4	10 ± 1.8 fold	10	900 nM	
N#Cc1ccc(NC(=O)N[C@H]2CC[C@H](Oc3ccc(C(F)(F)F)cc3)CC2)cc1F [Compound 5-VI, 1-(4-Cyano-3-fluorophenyl)-3-(trans-4-(4-(trifluoromethyl)phenoxy)cyclohexyl)urea]	dramatic reduction in the activity	5.5 ± 0.4 fold	5.5		10.4 ± 1	460 nM	
N#Cc1cc(NC(=O)N[C@H]2CC[C@H](Oc3ccc(C(F)(F)F)cc3)CC2)cc(C(F)(F)F)c1 [Compound 1-VI, 1-(3-cyano-5-trifluoromethyl) phenyl-3-(trans-4-(4-(trifluoromethyl)phenoxy)cyclohexyl)urea, reference compound]	dramatic reduction in the activity	5.7 fold and 5.7 ± 1.4 fold		13.8 fold and 13.8 ± 1.5 fold			350 nM
N#Cc1cc(F)cc(NC(=O)N[C@H]2CC[C@H](Oc3ccc(C(F)(F)F)cc3)CC2)c1 [Compound 4-VI, 1-(3-Cyano-5-fluorophenyl)-3-(trans-4-(4-(trifluoromethyl)phenoxy)cyclohexyl)urea]	dramatic reduction in the activity		4.6 ± 0.7		9.3 ± 1.3		630 ± 300 nM

— patent US20240076272A1, “Activators of Heme Regulated Inhibitor Kinase (HRI)” (The Brigham and Women`s Hospital, Inc., priority 2019, published 2024)
